Test results: PubChem BioAssay (NCI)
Values joined by “and” are separate entries in the source; they are usually repeats but may differ in a detail not shown here. Identical values can stand only once.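 Protocol summary: plate cells (96-well), add compound at 5 concentrations, incubate 48 h, interpolate endpoints linearly. GI50: concentration for 50% inhibition of growth. TGI is the concentration that stops growth completely.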

Tests used:
Assay in all cases: NCI anticancer screen, dose series, 48 h
[1] = tested on: HCT-15 colon
[2] = tested on: OVCAR-4 ovarian
[3] = tested on: SK-MEL-2 melanoma
[4] = tested on: K-562 leukemia
[5] = tested on: UO-31 renal
[6] = tested on: SR leukemia
[7] = tested on: OVCAR-8 ovarian
[8] = tested on: A498 renal
[9] = tested on: LOX IMVI melanoma
[10] = tested on: 786-0 renal
[11] = tested on: MALME-3M melanoma
[12] = tested on: MOLT-4 leukemia
[13] = tested on: HL-60(TB) leukemia

COc1ccccc1/C=C/C1=NN(c2cccc(S(=O)(=O)O)c2)C2(C1)C(Cl)C(=O)N2c1nc2ccccc2s1 (stereo unspecified)
TGI [1]: > 100 µM
TGI [2]: > 100 µM
TGI [3]: > 100 µM
TGI [4]: > 100 µM
TGI [5]: 33.5 µM
TGI [6]: 55.2 µM
TGI [7]: > 100 µM
TGI [8]: > 100 µM
TGI [9]: > 67 µM
TGI [10]: > 59.8 µM
TGI [11]: > 100 µM
TGI [12]: > 100 µM
TGI [13]: 45.5 µM

CC(C)=CCC[C@@H](C)C1=C(O)C(Nc2ccccc2Cl)=C(C)C(=O)C1=O
TGI [1]: > 75 µM
TGI [2]: > 75 µM
TGI [3]: 46.7 µM
TGI [4]: > 75 µM
TGI [5]: > 49.5 µM
TGI [6]: 72.1 µM
TGI [7]: > 41 µM
TGI [8]: > 56.9 µM
TGI [9]: > 75 µM
TGI [10]: > 52 µM
TGI [11]: 29.3 µM
TGI [12]: > 57.5 µM
TGI [13]: 4.16 µM

Cc1ccc2c(=O)cc(-c3ccc(C)s3)[nH]c2n1
TGI [1]: > 37.5 µM
TGI [2]: > 100 µM
TGI [3]: > 100 µM
TGI [4]: > 100 µM
TGI [5]: 1.43 µM
TGI [6]: > 100 µM
TGI [7]: > 28.3 µM
TGI [8]: > 70.9 µM
TGI [9]: > 42.9 µM
TGI [10]: > 100 µM
TGI [11]: 53 µM
TGI [12]: > 100 µM
TGI [13]: 0.607 µM

Nc1nc(NCCCO)cc(=O)[nH]1
TGI [1]: > 100 µM
TGI [2]: > 100 µM
TGI [3]: > 100 µM
TGI [4]: > 100 µM
TGI [5]: > 100 µM
TGI [6]: > 100 µM
TGI [7]: > 100 µM
TGI [8]: > 100 µM
TGI [9]: > 100 µM
TGI [10]: > 100 µM
TGI [11]: > 100 µM
TGI [12]: > 100 µM
TGI [13]: > 100 µM

O=C(NNC(=S)NC1CCCCC1)C12CC3CC(CC(C3)C1)C2
TGI [1]: > 100 µM
TGI [2]: > 100 µM
TGI [3]: > 100 µM
TGI [4]: > 100 µM
TGI [5]: > 100 µM
TGI [6]: > 100 µM
TGI [7]: > 100 µM
TGI [8]: > 100 µM
TGI [9]: > 100 µM
TGI [10]: > 100 µM
TGI [11]: > 100 µM
TGI [12]: > 100 µM
TGI [13]: > 100 µM

CCOC(=O)c1nc2ccc(C(F)(F)F)cc2nc1NCc1ccc(OC)c(OC)c1
TGI [1]: > 100 µM
TGI [2]: > 100 µM
TGI [3]: 86.1 µM
TGI [4]: > 100 µM
TGI [5]: > 100 µM
TGI [6]: > 100 µM
TGI [7]: > 100 µM
TGI [8]: > 100 µM
TGI [9]: > 100 µM
TGI [10]: > 100 µM
TGI [11]: > 100 µM
TGI [12]: > 100 µM
TGI [13]: > 100 µM

CC1=CC[C@@]2(C)CC[C@](O)(C(C)C)C2C(OC(=O)c2ccccc2)C1 (stereo partly specified)
TGI [1]: 34.2 µM
TGI [2]: 62.2 µM
TGI [3]: 32.2 µM
TGI [4]: 47.8 µM
TGI [5]: 32.6 µM
TGI [6]: 97 µM
TGI [7]: 37.5 µM
TGI [8]: 50.8 µM
TGI [9]: 42 µM
TGI [10]: 33.4 µM
TGI [11]: 41.6 µM
TGI [12]: 43.5 µM
TGI [13]: 82.2 µM

CCC1(c2ccc(N3C(=O)c4cc(OC)c(OC)cc4C3=O)cc2)CCC(=O)NC1=O (stereo unspecified)
TGI [1]: > 10 µM
TGI [2]: > 10 µM
TGI [3]: > 10 µM
TGI [4]: > 10 µM
TGI [5]: > 10 µM
TGI [6]: > 10 µM
TGI [7]: > 10 µM
TGI [8]: > 10 µM
TGI [9]: > 10 µM
TGI [10]: > 10 µM
TGI [11]: > 10 µM
TGI [12]: > 10 µM
TGI [13]: > 10 µM

Clc1ccc(CCN[C@H]2CCCC[C@H]2N2CCCC2)cc1Cl
TGI [1]: 49.5 µM
TGI [2]: 89.4 µM
TGI [3]: 44.1 µM
TGI [4]: > 100 µM
TGI [5]: 31.2 µM
TGI [6]: > 100 µM
TGI [7]: > 100 µM
TGI [8]: 40.5 µM
TGI [9]: 32.4 µM
TGI [10]: 77 µM
TGI [11]: 30.3 µM
TGI [12]: > 100 µM
TGI [13]: 50 µM

CC(C)(Cl)C(Br)CCC(Br)(CCl)C(Cl)CBr (stereo unspecified)
TGI [1]: > 10 µM
TGI [2]: > 10 µM
TGI [3]: > 10 µM
TGI [4]: > 10 µM
TGI [5]: > 10 µM
TGI [6]: > 10 µM
TGI [7]: > 10 µM
TGI [8]: > 10 µM
TGI [9]: > 10 µM
TGI [10]: > 10 µM
TGI [11]: > 10 µM
TGI [12]: > 10 µM
TGI [13]: > 10 µM

CC(C)=CCCC(C)CCOS(=O)C(F)(F)F (stereo unspecified)
TGI [1]: 11.5 µM
TGI [2]: 20.5 µM
TGI [3]: 36.5 µM
TGI [4]: > 100 µM
TGI [5]: 35.2 µM
TGI [6]: 10.3 µM
TGI [7]: > 100 µM
TGI [8]: 63.7 µM
TGI [9]: 37.2 µM
TGI [10]: > 100 µM
TGI [11]: 18.9 µM
TGI [12]: 24.2 µM
TGI [13]: 9.14 µM

COc1ccc(COC(=O)NCC(=O)NC(C)C(=O)NC(Cc2ccccc2)C(=O)OCc2ccccc2)cc1 (stereo unspecified)
TGI [1]: > 100 µM
TGI [2]: 41.2 µM and 95.1 µM
GI50 [3]: 35.5 µM and > 100 µM
TGI [3]: 83.3 µM and > 100 µM
TGI [4]: > 100 µM and 52.6 µM
GI50 [5]: 23.2 µM and 69.6 µM
TGI [5]: 44.9 µM and > 100 µM
TGI [6]: > 100 µM and 51.7 µM
TGI [7]: > 100 µM
TGI [8]: 38.8 µM and > 100 µM
TGI [9]: 79.1 µM and 38.8 µM
TGI [10]: 73.1 µM and 36 µM
TGI [11]: 37.6 µM and 92.3 µM
GI50 [12]: 8.37 µM and 24.5 µM
TGI [12]: 55.9 µM and 49.3 µM
GI50 [13]: 3.12 µM and 17.7 µM
TGI [13]: 10.7 µM and 37.8 µM

CC(=O)OCC1OC(n2c3c(c(-c4ccc(Cl)cc4)c(C#N)c2=S)CCCC3)C(OC(C)=O)C(OC(C)=O)C1OC(C)=O (stereo unspecified)
TGI [1]: > 100 µM
TGI [2]: > 100 µM
TGI [3]: 63.3 µM
TGI [4]: > 100 µM
TGI [5]: > 100 µM
TGI [6]: > 100 µM
TGI [7]: > 100 µM
TGI [8]: 79.3 µM
TGI [9]: > 100 µM
TGI [10]: > 100 µM
TGI [11]: > 100 µM
TGI [12]: > 100 µM
TGI [13]: > 100 µM

CN(CCCNC(=O)c1cn(C)c2c1Cc1ccccc1-2)CCCNC(=O)c1cn(C)c2c1Cc1ccccc1-2
TGI [1]: 25.2 µM
TGI [2]: 26.8 µM
TGI [3]: 30.6 µM
TGI [4]: 17 µM
TGI [5]: 21.8 µM
TGI [6]: 11.1 µM
TGI [7]: 29.8 µM
TGI [8]: 26.8 µM
TGI [9]: 24.6 µM
TGI [10]: 17.9 µM
TGI [11]: 24.5 µM
TGI [12]: 16.4 µM
TGI [13]: 28.6 µM
